The values below come from patent US9393204B2, “Methods and compositions employing bicifadine for treating disability or functional impairment associated with acute pain, chronic pain, or neuropathic disorders” (EBI Life Sciences, Inc., priority 2002, dated 2016).

“Also recorded” adds a separate entry of the source. Where a name gives a salt, the structure may show the parent alone.

In series [1] the test system is post-operative dental pain. In words: Analgesic efficacy of bicifadine SR tablets in post-operative dental pain study. It is filed as in vivo, human. Here is the method: These conclusions are further substantiated by the use of rescue medication by subjects in the Stem et al. acute dental pain studies. Table 5 below summarizes information on the use of rescue medication for patients who took rescue medication among the various treatment groups in the clinical trial reported by Stern et al. (id.) A nonparametric analysis (Median Test) was conducted to evaluate the median latency to rescue medication.
Survival analysis (Kaplan-Meier method, 95% confidence) was performed to compare the treatment groups with regard to time-to-rescue medication. […] The analysis yielded a statistically significant difference among the treatment groups (Log-Rank test, Chi-square=26.9, df=4, P=0.0001).
(§1) Healthy adult male and female human subjects who underwent surgical extraction of two or more impacted third molars were enrolled in the study. Following cessation of the local anesthetic effect and onset of pain of at least 40 mm intensity on the 100 mm VAS, patients were randomized to into 1 of the 5 treatment arms (n˜108 per arm) and remained in the clinic for the subsequent 12 hours of the study. The study subjects were randomized to receive either a single dose of: 200 mg, 400 mg or 600 mg bicifadine SR tablets, Tramadol 100 mg, or Placebo. Analgesia ratings were obtained over a 12 h post-dosing period. Rescue medication (acetaminophen) was available, but no analgesia measures were taken after the use of rescue medication by a given patient. A subset of 150 patients provided blood samples at 0.5 hr and hourly intervals following dosing with study medication for the purpose of determining bicifadine levels (n=90).
The main efficacy endpoints utilized in the overall study (n˜540) were the individual assessment of Pain Severity and Pain Relief scores at a given time point; the derived scores (PID, PRID, SPID, SPRID, TOTPAR), and the global improvement. The last observation carried forward (LOCF) approach was used to estimate change over time for those patients who used rescue medication. For the full study efficacy evaluations, one-way analysis of covariance with baseline pain severity as a covariate was applied. The global tests which included all treatment arms were followed by post-hoc comparisons of the individual treatment arms vs. placebo.
The relationship between mean pain relief ratings (PRR) and mean plasma bicifadine levels was determined at three exemplary plasma level ranges: between 0-500 ng/ml, 500-1000 ng/ml, and >1000 ng/ml, respectively. A clear positive relationship was observed across 3 ranges of bicifadine levels. In particular, bicifadine plasma concentrations in the >1000 ng/ml range were associated with a PR score approximately 3 times as high as plasma concentrations in the 0-500 ng/ml range (p<0.001, Hierarchical Linear Model analysis).
The probability of treatment response as a function of bicifadine blood concentration levels was also determined. Association between the probability of treatment response and bicifadine blood concentration levels was investigated with the widely known Generalized Estimating Equation (GEE) approach. For the purpose of the GEE analyses described here, bicifadine blood concentration was treated as a continuous independent (predictor) variable. Treatment (analgesic) response served as a dichotomous (yes, no) dependent variable in the GEE model. In particular, treatment response for each individual patient for each of the time points was defined as a Pain Relief Rating of 3 or more (range 0-4).

In series [2] the test system is chronic low back pain (CLBP). In words: Chronic low back pain (CLBP) study, bi-daily dosing. It is filed as in vivo, human. As to the method:
The present study evaluated the therapeutic efficacy of a reduced dosing regimen employing bicifadine in a bi-daily (BID) dosing protocol to treat chronic low back pain (CLBP). More than 800 study subjects were recruited in this study, and a subset of these subjects was administered 400 mg of a sustained release oral dosage form (formula M; example 15) of bicifadine BID to evaluate the long-term analgesic efficacy of bicifadine for treating CLBP. […] The following outcome measures were assessed in the study:
Inclusion criteria for study subjects, as selected for other studies herein, included the following: Subjects were at least 18 years of age. If subject was female and of childbearing potential, the subject had to have a negative serum pregnancy test during the screening period. Subjects were required to have […] during the screening period.
Other exclusionary criteria in this study included: Low back pain due to acute fracture, infection, severe osteoporosis, malignancy, marked scoliosis, or severe congenital malformation such as spina bifida; Receipt of an epidural injection of corticosteroid in the lower back within 1 month prior to the baseline visit; Use of any antidepressant for pain or sleep (including SSRIs or SNRIs), anti-epileptic, or muscle relaxant, or receipt of transcutaneous electrical nerve stimulation, chiropractic adjustment, or acupuncture within 3 weeks prior to the baseline visit; Use of any antidepressant (including SSRIs or SNRIs) for depression within 3 months prior to the baseline visit; Use of any opioid analgesic or benzodiazepine (or other sedative-hypnotic) within 2 weeks prior to the baseline visit; Use of any NSAID (except aspirin<81 mg per day or <325 mg every other day for cardiac prophylaxis and except ibuprofen) or any non-opioid analgesic (except acetaminophen) within 1 week, or acetaminophen or ibuprofen within 60 hours, prior to the baseline visit; Active malignancy of any type or history of a malignancy within 5 years prior to the first dose of study medication (patients with treated localized basal or squamous cell carcinoma of the skin within 5 years are permitted); Active GI disease (including any GI surgery that, in the Investigator's opinion, would interfere with the absorption of the study medication), or a chronic or acute renal or hepatic disorder; Mental instability, known substance abuse, history of clinically significant depression or alcoholism, or incapacity of being compliant with the requirements of the study; Any clinically significant cardiovascular, renal, endocrine, hepatic, immunologic, respiratory, neurologic, gastrointestinal, psychiatric, or hematologic disease, or any underlying serious medical condition that would preclude patient's participation in the study; and, other standard, relevant exclusion criteria.
Patients who qualified for enrollment into the study completed the PSR test, Roland-Morris Disability Questionnaire, Short Form McGill Pain Questionnaire (SF-MPQ) and the SF-36 quality of life survey at the baseline visit and at various time points throughout the study.
Study subjects were randomized on a 25:6 basis to receive either bicifadine 400 mg BID or SOC treatment, respectively. SOC treatment was provided as any appropriate pharmacological analgesic treatment selected by the investigator based on the subjects' baseline and ongoing presentation. Subjects were permitted to reduce the dose for tolerability reasons, first to bicifadine 300 mg BID, and then, if necessary, to bicifadine 200 mg BID.
Summary statistics, including observed means and standard deviations along with mean change from baseline were summarized by visit for each outcome measure. Incidence of discontinuation due to lack of efficacy and its 95% confidence interval were likewise calculated. The median and its 95% confidence interval and a Kaplan-Meier plot were provided for Time to Discontinuation due to lack of efficacy and other reasons. […]

Series [3] relates to neuropathic pain. In words: Spinal nerve ligation (Chung) model. The settings on record: in vivo.
The nature of series [4]: Pharmacokinetics of bicifadine SR tablets in acute dental pain study. It is filed as in vivo, human. As to conditions: 90 patients. As to the method:
as §1
Plasma time course profiles were determined in a subset of 30 subjects (15 male/15 female) from each treatment group.

In series [5] the test system is acute, nociceptive pain following dental surgery. As to conditions: cited from earlier work.
Series [6] deals with acute pain. In words: Acute pain studies (acute dental pain and bunionectomy pain). It is filed as in vivo, human. As to conditions: unit doses of about 200 mg, 400 mg or 600 mg.
Series [7] concerns acute inflammatory pain. The settings on record: animal model of acute inflammatory pain; cited from earlier work.
Where [8] appears, read: patients with low back pain and radiating pain.

For `COc1cccc(C2(O)CCCCC2CN(C)C)c1` (centres unmarked) [tramadol, reference compound], the “use of rescue medication versus placebo (time-to-rescue, Log-Rank)” value in series [1] (100 mg, P=0.0001) is listed as “significantly less likely to use rescue medication”.

For `Cc1ccc(C23CNCC2C3)cc1` (racemic) [Bicifadine HCl, (±)-1-(4-methylphenyl)-3-azabicyclo[3.1.0]hexane hydrochloride], in series [2] (BID dosing, 4.5 month period, versus SOC), the “therapeutic efficacy from pain relief data (VAS)” value was “comparable to that of standard of care (SOC) treatment”. The improved functional/activity results in series [2] (BID dosing, versus SOC) was “comparable to those observed among SOC-treated subjects”. For the same compound, the “VAS pain scores compared to placebo” value in series [2] (baseline RDQ score greater than 17) was “significantly reduced”. Also, in series [2] (baseline RDQ score greater than 17, hydrochloride), the “subjects with at least a 50% reduction in VAS scores, relative to placebo” value is given as “at least three times as many; also recorded: roughly three times the percentage”. The “percentage of subjects with 50% or greater reduction in RDQ scores, relative to placebo (less than 15%)” value in series [2] (baseline RDQ>17, 400-800 mg/day) was “roughly twice this percentage”. Moreover, the “disability scores on the RDQ versus placebo” value in series [2] (baseline RDQ>17, 400-800 mg/day, hydrochloride) was “significant activity for reversing disabilities and enhancing functional/activity performance; also recorded: significantly decreased”. Also, in series [2] (setting [8]), the “improvement in VAS pain score compared to placebo” value is 11 mm and the “responsiveness to treatment versus patients with only localized back pain” value is reported as “two times more responsive”. In addition, the “efficacy in the spinal nerve ligation (Chung) model” value in series [3] is given as “effective”. Besides, in series [1] (200 mg single dose), the “SPRID-6 and other derived analgesia scores versus placebo” value is “better than placebo on some measures”. Also, the “SPRID-6 and other derived analgesia scores versus placebo” value in series [1] (400 mg single dose) is given as “statistically superior to placebo”. In addition, the “SPRID-6 and other derived analgesia scores versus placebo” value in series [1] (600 mg single dose) was “statistically superior to placebo”. For the same compound, in series [1] (acute dental pain), the “drug levels associated with significant analgesic efficacy” value was in the range of 500 to 1000 ng/mL, the minimally effective dose is 200 mg, the “plasma bicifadine levels associated with the greatest pain relief” value was more than 1000 ng/mL and the “plasma drug levels not associated with significant analgesic effects” value was not above 500 ng/mL. Moreover, the “Odds Ratio of Response (Pain Relief Rating of 3 or more)” value in series [1] (for an increase of 500 ng/ml in bicifadine blood levels, GEE, p=0.006) was 1.59. In addition, in series [1] (p<0.001, Hierarchical Linear Model), the “PR score at plasma concentrations >1000 ng/ml relative to 0-500 ng/ml range” value is given as “approximately 3 times”. The “relationship between bicifadine dose and AUC” value in series [4] was “clear dose proportional relationship”. The “efficacy relative to codeine and tramadol” value in series [5] is “as effective as codeine and tramadol”. In series [6], the “period of analgesic efficacy for effectively treating acute pain” value is listed as “up to 6 hours”. Also, in series [7], the “activity in the Randall-Selitto test” value was “potent and active”.
